One series addresses T1, FABP3 (Homo sapiens, UniProt P05413).
T1 construct: made in house; host or cells: E. coli BLR(DE3), pET28a-derived vector (NdeI/XhoI), synthetic gene (Invitrogen GeneArt)
Description: Quartz crystal microbalance (QCM) binding assay to immobilized FABP3. The note with it: for kon / koff: QCM, immobilized His6-FABP3, 50 mM Tris-HCl pH 7.4, room temperature, kobs = koff + kon[αSyn].

The next series has as its target T2, FABP3 F16S (Homo sapiens, UniProt P05413, F17S).
T2 construct: made in house
As to the kind of experiment: QCM binding assay to immobilized FABP3 F16S mutant. The protocol: The binding affinities between αSyn and FABP3 were estimated directly using an Affinix QNμ quartz crystal microbalance apparatus operating at room temperature. Samples of His6-FABP3 were affixed to the gold-plated quartz sensor by nickel chelating binding groups as follows. Before binding, the gold sensor was washed with 1% SDS and piranha solution (H2SO4:H2O2 = 3:1). Next, 100 μl of 0.5 mM 3, 3’-dithiobis[N-(5-amino-5-carboxypentyl)propionamide-N’,N’-diacetic acid]dihydrochloride (C₂-NTA, Dojindo) solution was applied and incubated for 10 min at room temperature. This solution was rinsed with Milli-Q water, and 500 μl of Ni+ solution (20 mM Hepes-NaOH buffer, pH 7.5, containing 150 mM NaCl,[…] 10 mM NiSO4) was added. After a 10 min incubation, the sensor was washed again with Milli-Q, then a 0.1 μM sample of His6-FABP3 in 50 mM Tris-HCl buffer, pH 7.4 was applied. The signal from the quartz sensor was then monitored over a 1 s interval with gentle stirring. To initiate the data sampling run, samples of αSyn with varying concentrations were then applied to the sensor. After each experimental run, the bound His6-FABP3 was removed by the application of 500 μl imidazole solution (0.4 M imidazole/20 mM Hepes pH 7.5/150 mM NaCl) for 30 min, followed by a Milli-Q rinse, and reattachment of Ni-ion and fresh His6-FABP3 to reset the sensor to its original state. Analysis of the raw traces to obtain quantitative affinity values were performed using the software package (AQUA 2.0) provided by the manufacturer, according to the following linear relationship between the observed rate constant kobs and the concentration of αSyn; kobs = koff + kon[αSyn]. Estimated kon and koff values were then used to determine the Kd.

Another series relates to αSyn. As to the kind of experiment: Thio-T fluorescence assay of αSyn fibril formation with added protein. The note with it: αSyn 69 μM, 50 mM Tris-HCl pH 7.4, 150 mM NaCl, 37 °C, agitation. The series is classed as biochemical, Human. As for the experimental part: The formation of αSyn fibrils were detected in fluorescence assays using Thio-T. Samples (1 mg/ml; 69 μM) of either WT or mutant αSyn were incubated in Thio-T assay buffer (50 mM Tris-HCl, pH 7.4, containing 150 mM NaCl and 20 μM Thio-T) with or without additional FABP3 and/or αSyn-derived oligopeptides. One hundred 50 μl aliquots were incubated in 96-well plates (8 × 12-well plate; Greiner) at 37 °C using an ARVOX4 (PerkinElmer) fluorescent plate reader with continuous agitation. The fluorescence signal of the samples (Ex: 440 nm, Em: 486 nm) were measured at 15 min intervals. In experiments where the effects of delayed FABP3 addition were probed (Fig. 1C), an equimolar concentration of FABP3 was added to the respective wells after an initial agitation regimen of 3, 8, or 24 h. Data shown are the average of data from three 150 μl samples, and error bars indicate standard errors of the mean.

The test system of the next series is N2a cells. Description: Cell viability by Tali Image-Based Cytometer (Calcein-AM/ethidium homodimer). More on the design: species or system Mouse. The note with it: protein co-expressed with FABP3 in N2a cells, 30 μM 6-OHDA 24 h. The protocol:
Cell viability measurements using a Tali Image-Based Cytometer (Thermo Fisher Scientific) were performed according to previous methods ([59]). After 24 h incubation, media was changed to 0% FBS+MEM containing 30 μM 6-hydroxydopamine and incubated for 24 h. Statistical comparisons were performed by Welch’s t test.

A short description of series [1]: Dynamic light scattering of fibril-forming samples. The series is classed as physicochemical. The note with it: DLS, 25 °C. As for the experimental part:
Dynamic light scattering measurements were performed on an Otsuka Electronics FDLS-3000 monitor with a laser wavelength of 532 nm at an observation angle of 90°. Sample protein concentrations were adjusted to 0.3 mg/ml, and a sample volume of 2 ml was used for measurements. Samples were filtered before measurement.

Read-outs that look alike come from different tables or passages of the source. Ends that are not written are not given here.

Usually Kd stands for the constant that tells how readily two partners part at equilibrium. As usually defined, the koff is the rate constant with which the complex falls apart.

T1 sequence (P05413 whole entry): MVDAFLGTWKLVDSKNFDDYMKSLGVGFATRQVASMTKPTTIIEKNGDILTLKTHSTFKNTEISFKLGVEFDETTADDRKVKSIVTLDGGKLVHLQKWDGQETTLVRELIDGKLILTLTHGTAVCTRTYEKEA
T2 sequence (P05413 whole entry F17S): as the sequence (P05413 whole entry) above, with F17S counted along it

Regarding `CCCCC/C=C\C/C=C\C/C=C\C/C=C\CCCC(=O)O` [arachidonic acid, reference compound], at FABP3, the Kd was found to be 6.8 nM and the kon is 0.8 × 10^5 M^−1・s^−1. Besides, on FABP3 (read-out: koff), the koff came out at 0.0006 s⁻¹. For the same molecule, at FABP3 F16S, binding was characterised by a dissociation constant (Kd) of 2090 nM, the koff worked out at 0.0047 s⁻¹ and the kon is recorded as 0.02 × 10^5 M^−1・s^−1.
As for EEGFQDFEPEA [αSynP130-140 Y133F/Y136F], the kon at FABP3 is reported as 5.4 × 10^5 M^−1・s^−1. For the same molecule, the koff at FABP3 (read-out: koff) came out at 0.0011 s⁻¹.
EEGFQDWEPEA [αSynP130-140 Y133F/Y136W]: at FABP3, the equilibrium dissociation constant (Kd) was determined as 6.1 nM and the kon is 3.2 × 10^5 M^−1・s^−1. Besides, at FABP3 (read-out: koff), the koff is 0.0019 s⁻¹.
On to EEGFQDYEPEA [αSynP130-140Y133F], for which the kon on FABP3 is recorded as 7.5 × 10^5 M^−1・s^−1. On FABP3 (read-out: koff), the koff is 0.0015 s⁻¹.
The matching figures for EEGWQDWEPEA [αSynP130-140Y133W/Y136W]: 2.4 × 10^5 M^−1・s^−1 and 0.0015 s⁻¹.
For the molecule EEGYQDFEPEA [αSynP130-140Y136F], the kon at FABP3 is listed as 4.8 × 10^5 M^−1・s^−1. Moreover, the koff on FABP3 (read-out: koff) was determined as 0.0037 s⁻¹.
With EEGYQDWEPEA [αSynP130-140Y136W], on FABP3, the kon was 3.8 × 10^5 M^−1・s^−1. Moreover, at FABP3 (read-out: koff), the dissociation rate constant (koff) worked out at 0.0024 s⁻¹.
EEGYQDYEPEA [αSynP130-140]: on FABP3, the Kd was 6.1 nM and the kon is 2.0 × 10^5 M^−1・s^−1. In addition, the off-rate constant (koff) on FABP3 (read-out: koff) is 0.0012 s⁻¹.
As for bovine serum albumin, the “effect of added protein on αSyn fibril formation” value with αSyn is recorded as “no significant suppressive effects in fibrillation of αSyn”.
As for lysozyme, the “effect of added protein on αSyn fibril formation” value with αSyn is listed as “no significant suppressive effects in fibrillation of αSyn”.
For α-synuclein [αSyn], the Kd on FABP3 (QCM (Affinix QNμ), His6-FABP3 immobilized via Ni-NTA on gold sensor, 50 mM Tris-HCl pH 7.4, room temperature, Kd determined from estimated kon and koff) was 7.2 nM. On FABP3, the koff turned out to be 0.0046 s⁻¹ and the kon is on record as 6.4 × 10^5 M^−1・s^−1. For the same molecule, the “binding to FABP3 F16S (in words)” value on FABP3 F16S is reported as “unable to bind”. Besides, in the series with N2a cells, the Alive cells is 77% and the Dead cells is given as 0%. The “Dying cells (co-stained with Calcein-AM and EthD-1)” value in the series with N2a cells (control 12%) is recorded as 23%. Further, the average particle size in series [1] (αSyn alone, absence of FABP3, after 1200 min incubation) came out at 6 μm. Further, in series [1] (αSyn in the presence of FABP3, after 1200 min incubation), the average particle size came out at 0.63 μm.

Source of the values: paper PMC8131325 (The Journal of Biological Chemistry, 2021).
